# Measured values published in patent publication US20240417405A1, “Substituted Spiro Derivatives” (Janssen Pharmaceutica NV, priority 2021, published 2024).
# Tests used:
# [1] = molecular target: T1, menin/MLL (terbium chelate-labeled menin, FITC-MBM1 peptide) (Homo sapiens, UniProt O00255, T541A); experiment: Menin/MLL homogenous time-resolved fluorescence (HTRF) assay; type: binding; settings: 30 min incubation
# T1 construct: Menin (a.a 1-610-6xhis tag)
# T1 sequence (O00255 with tags, fused parts or gaps T541A): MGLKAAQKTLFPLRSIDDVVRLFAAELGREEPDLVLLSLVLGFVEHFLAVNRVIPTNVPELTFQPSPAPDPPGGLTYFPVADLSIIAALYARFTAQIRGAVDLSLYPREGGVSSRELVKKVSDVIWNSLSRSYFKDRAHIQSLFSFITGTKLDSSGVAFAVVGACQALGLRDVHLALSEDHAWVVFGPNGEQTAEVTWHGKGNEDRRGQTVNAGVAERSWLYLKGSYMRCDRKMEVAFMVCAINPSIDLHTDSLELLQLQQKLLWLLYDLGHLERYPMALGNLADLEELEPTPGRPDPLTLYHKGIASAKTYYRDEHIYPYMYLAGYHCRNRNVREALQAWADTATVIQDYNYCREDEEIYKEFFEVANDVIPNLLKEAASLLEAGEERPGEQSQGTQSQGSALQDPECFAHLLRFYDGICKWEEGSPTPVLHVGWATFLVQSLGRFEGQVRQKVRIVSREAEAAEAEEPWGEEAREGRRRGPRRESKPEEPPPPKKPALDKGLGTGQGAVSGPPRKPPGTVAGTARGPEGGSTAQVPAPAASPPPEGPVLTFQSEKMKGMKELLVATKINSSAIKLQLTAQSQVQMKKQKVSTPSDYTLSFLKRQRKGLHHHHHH
# Procedure, shortened: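 Percent inhibition, calculated from the 520/490 nm HTRF ratio against high and low controls, was fitted for IC50 with a 0.1 nM detection limit. Reactions held 200 pM Tb-menin and 75 nM FITC-MBM1 in pH 7.5 Tris buffer with 0.5% DMSO.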
# MOLM14 cells = experiment: Proliferation assay, spheroid-like growth, MOLM14 (MLL-AF9 rearranged); type: cell-based, human; settings: Homo sapiens, MOLM-14, 192 h, 8 days, confluence as measure of spheroid size, read-out: spheroid assay_OneTime MOLM14 IC50
# Procedure, shortened: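 Seed cells at linear-growth densities in low-attachment wells; add test compound at several concentrations, normalized to 0.3% DMSO; incubate 8 days at 37 °C; image spheroids and measure confluence; calculate absolute IC50 against DMSO and reference-compound controls.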
IC50 [1],IC50 (MOLM14 cells),Compound
0.08 nM,26 nM,"CC(C)[C@H]([C@H]1C[C@@H](Nc2ncnc3[nH]ncc23)C1)N1CC2(CCN(c3ncnnc3Oc3ccc(F)cc3-c3cncnc3C3CC3)C2)C1 (single isomer, unassigned) [Compound 413]"
0.1 nM,21 nM,"CC(=O)Nc1cc(N[C@H]2C[C@@H](C(C(C)C)N3CC4(CCN(c5ncnnc5Oc5ccc(F)cc5-c5cncnc5C5CC5)C4)C3)C2)cnn1 (single isomer, unassigned) [Compound 414]"
0.17 nM,8.9 nM,"CNC(=O)c1cnc(N[C@H]2C[C@@H]([C@@H](C(C)C)N3CC4(CCN(c5ncnnc5Oc5ccc(F)cc5-c5cnc(C)nc5C5CC5)C4)C3)C2)o1 (single isomer, unassigned) [Compound 416]"
0.05 nM,1.8 nM,"CNC(=O)c1cnc(N[C@H]2C[C@@H]([C@@H](C(C)C)N3CC4(CCN(c5ncnnc5Oc5ccc(F)cc5-c5cnc(C)nc5C5CC5)C4)C3)C2)s1 (single isomer, unassigned) [Compound 417]"
0.07 nM,9 nM,"CC(=O)Nc1cc(N[C@H]2C[C@@H]([C@@H](C(C)C)N3CC4(CCN(c5ncnnc5Oc5ccc(F)cc5-c5cncnc5C5CC5)C4)C3)C2)ncn1 (single isomer, unassigned) [Compound 418]"
0.14 nM,5 nM,"COc1cc(N[C@H]2C[C@@H]([C@@H](C(C)C)N3CC4(CCN(c5ncnnc5Oc5ccc(F)cc5-c5cncnc5C5CC5)C4)C3)C2)cnn1 (single isomer, unassigned) [Compound 419]"
~0.39 nM,290 nM,"CC(C)[C@H]([C@H]1C[C@@H](Nc2ccnc3[nH]c(=O)ccc23)C1)N1CC2(CCN(c3ncnnc3Oc3ccc(F)cc3-c3cncnc3C3CC3)C2)C1 (single isomer, unassigned) [Compound 420]"
0.13 nM,< 1.8 nM,"CNC(=O)Nc1cc(N[C@H]2C[C@@H](C(C(C)C)N3CC4(CCN(c5ncnnc5Oc5ccc(F)cc5-c5cncnc5C5CC5)C4)C3)C2)ccn1 (single isomer, unassigned) [Compound 421]"
~0.27 nM,88 nM,"CC(C)[C@H]([C@H]1C[C@@H](Nc2ncnc3[nH]ncc23)C1)N1CC2(CCN(c3ncnnc3Oc3ccc(F)cc3-c3cncnc3C3CC3)C2)C1 (single isomer, unassigned) [Compound 422]"
0.18 nM,9 nM,"Cc1cc(-c2cnnc(N[C@H]3C[C@@H]([C@@H](C(C)C)N4CC5(CCN(c6ncnnc6Oc6ccc(F)cc6-c6cncnc6C6CC6)C5)C4)C3)c2)[nH]n1 (single isomer, unassigned) [Compound 423]"
0.17 nM,4 nM,"CC(C)[C@H]([C@H]1C[C@@H](Nc2cnnc(-c3ccn[nH]3)c2)C1)N1CC2(CCN(c3ncnnc3Oc3ccc(F)cc3-c3cncnc3C3CC3)C2)C1 (single isomer, unassigned) [Compound 424]"
0.03 nM,6 nM,"CC(C)C([C@H]1C[C@@H](Nc2cccc(CN(C)C)n2)C1)N1CC2(CCN(c3ncnnc3Oc3ccc(F)cc3-c3cncnc3C3CC3)C2)C1 (single isomer, unassigned) [Compound 425]"
0.09 nM,< 1.8 nM,"Cc1cn2ccc(N[C@H]3C[C@@H](C(C(C)C)N4CC5(CCN(c6ncnnc6Oc6ccc(F)cc6-c6cncnc6C6CC6)C5)C4)C3)cc2n1 (single isomer, unassigned) [Compound 426]"
~0.11 nM,< 1.8 nM,"COC(=O)Nc1cc(N[C@H]2C[C@@H]([C@@H](C(C)C)N3CC4(CCN(c5ncnnc5Oc5ccc(F)cc5-c5cncnc5C5CC5)C4)C3)C2)ccn1 (single isomer, unassigned) [Compound 427]"
0.09 nM,16 nM,"CC(C)C([C@H]1C[C@@H](Nc2cccc(CN3CCOCC3)n2)C1)N1CC2(CCN(c3ncnnc3Oc3ccc(F)cc3-c3cncnc3C3CC3)C2)C1 (single isomer, unassigned) [Compound 428]"
0.17 nM,3.3 nM,"CC(=O)Nc1nccc(N[C@H]2C[C@@H]([C@@H](C(C)C)N3CC4(CCN(c5ncnnc5Oc5ccc(F)cc5-c5cncnc5C5CC5)C4)C3)C2)c1F (single isomer, unassigned) [Compound 429]"

IC50 [1],IC50 (MOLM14 cells),Compound
0.11 nM,3.4 nM,"Cc1nnc(-c2cc(N[C@H]3C[C@@H]([C@@H](C(C)C)N4CC5(CCN(c6ncnnc6Oc6ccc(F)cc6-c6cncnc6C6CC6)C5)C4)C3)ccn2)[nH]1 (single isomer, unassigned) [Compound 430]"
0.54 nM,79 nM,"CC(C)[C@H]([C@H]1C[C@@H](Nc2cnc3nn[nH]c3c2)C1)N1CC2(CCN(c3ncnnc3Oc3ccc(F)cc3-c3cncnc3C3CC3)C2)C1 (single isomer, unassigned) [Compound 431]"
0.17 nM,22 nM,"CNC(=O)c1cc(N[C@H]2C[C@@H]([C@@H](C(C)C)N3CC4(CCN(c5ncnnc5Oc5ccc(F)cc5-c5cncnc5C5CC5)C4)C3)C2)cnn1 (single isomer, unassigned) [Compound 432]"
0.15 nM,2 nM,"CC(C)[C@H]([C@H]1C[C@@H](Nc2cc3nccn3cn2)C1)N1CC2(CCN(c3ncnnc3Oc3ccc(F)cc3-c3cncnc3C3CC3)C2)C1 (single isomer, unassigned) [Compound 433]"
0.16 nM,4 nM,"CNC(=O)c1coc(N[C@H]2C[C@@H](C(C(C)C)N3CC4(CCN(c5ncnnc5Oc5ccc(F)cc5-c5cncnc5C5CC5)C4)C3)C2)n1 (single isomer, unassigned) [Compound 438]"
0.39 nM,25 nM,"CNC(=O)c1nnc(N[C@H]2C[C@@H]([C@@H](C(C)C)N3CC4(CCN(c5ncnnc5Oc5ccc(F)cc5-c5cncnc5C5CC5)C4)C3)C2)o1 (single isomer, unassigned) [Compound 439]"
0.92 nM,680 nM,"C[C@@H]([C@H]1C[C@@H](N)C1)N1CC2(CCN(c3ncnnc3Oc3ccc(F)cc3-c3cncnc3C3CC3)C2)C1 (single isomer, unassigned) [Compound 441]"
0.21 nM,4 nM,"CNC(=O)c1nnc(N[C@H]2C[C@@H]([C@@H](C(C)C)N3CC4(CCN(c5ncnnc5Oc5ccc(F)cc5-c5cncnc5C5CC5)C4)C3)C2)s1 (single isomer, unassigned) [Compound 442]"
0.08 nM,4 nM,"CNC(=O)c1sc(N[C@H]2C[C@@H]([C@@H](C(C)C)N3CC4(CCN(c5ncnnc5Oc5ccc(F)cc5-c5cncnc5C5CC5)C4)C3)C2)nc1C (single isomer, unassigned) [Compound 443]"
0.19 nM,6 nM,"Cc1nnc(-c2cnc(N[C@H]3C[C@@H]([C@@H](C(C)C)N4CC5(CCN(c6ncnnc6Oc6ccc(F)cc6-c6cncnc6C6CC6)C5)C4)C3)s2)o1 (single isomer, unassigned) [Compound 445]"
~0.1 nM,7 nM,"CC(C)[C@H]([C@H]1C[C@@H](Nc2ncc(C(N)=O)s2)C1)N1CC2(CCN(c3ncnnc3Oc3ccc(F)cc3-c3cncnc3C3CC3)C2)C1 (single isomer, unassigned) [Compound 446]"
0.15 nM,4 nM,"CC(C)[C@H]([C@H]1C[C@@H](Nc2nnc(N)s2)C1)N1CC2(CCN(c3ncnnc3Oc3ccc(F)cc3-c3cncnc3C3CC3)C2)C1 (single isomer, unassigned) [Compound 447]"
0.18 nM,4.6 nM,"CC(C)[C@H]([C@H]1C[C@@H](Nc2n[nH]c3ncccc23)C1)N1CC2(CCN(c3ncnnc3Oc3ccc(F)cc3-c3cncnc3C3CC3)C2)C1 (single isomer, unassigned) [Compound 448]"
0.09 nM,8.4 nM,"CNC(=O)c1ncc(N[C@H]2C[C@@H]([C@@H](C(C)C)N3CC4(CCN(c5ncnnc5Oc5ccc(F)cc5-c5cncnc5C5CC5)C4)C3)C2)s1 (single isomer, unassigned) [Compound 449]"
0.08 nM,7 nM,"CNC(=O)c1cccc(N[C@H]2C[C@@H](C(C(C)C)N3CC4(CCN(c5ncnnc5Oc5ccc(F)cc5-c5cncnc5C5CC5)C4)C3)C2)n1 (single isomer, unassigned) [Compound 450]"
0.15 nM,11 nM,"CNC(=O)c1cc(N[C@H]2C[C@@H]([C@@H](C(C)C)N3CC4(CCN(c5ncnnc5Oc5ccc(F)cc5-c5cncnc5C5CC5)C4)C3)C2)ccn1 (single isomer, unassigned) [Compound 451]"
